Measured values reported in patent publication US7238689B2, “Isoxazoline derivative and herbicide comprising the same as active ingredient” (Ihara Chemical Industry Co., Ltd., priority 2001, dated 2007).

Tests used:
[1] = tested on: Echinochloa oryzicola Vasing; assay: Herbicidal effect by paddy field soil treatment; format: in vivo; parameters: scale not given here; conditions: wettable powder, active ingredient 1000 g/ha, examined at the 21st day from the treatment
Outline: (§1)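 Seeds sown in puddled paddy soil under 3 cm of water; the next day wettable powders diluted in water were dropped onto the water surface at 1,000 g active ingredient/ha. Plants grown in a greenhouse, with herbicidal effect scored on day 21 against a rating standard.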

[2] = tested on: Monochoria vaginalis (Murm. f.) Presl var. plantaginea (Roxb.) Solms-Laub.; assay: Herbicidal effect by paddy field soil treatment; format: in vivo; parameters: scale not given here; conditions: wettable powder, active ingredient 1000 g/ha, examined at the 21st day from the treatment
Outline: as §1

[3] = tested on: Echinochloa crus-galli (L.) Beauv. var. crusgalli; assay: Herbicidal effect by upland field soil treatment; format: in vivo; parameters: scale not given here; conditions: active ingredient 1000 g/ha, examined at 21st day from treatment
Text: (§2) An upland field soil was filled in a plastic pot of 80 cm^2. Seeds of Echinochloa crus-galli (L.) Beauv. var. crusgalli and Setaria viridis (L.) Beauv. were sowed, followed by covering with the same soil. […] Then, breeding was made in a greenhouse, and the herbicidal effect of each wettable powder was examined at the 21st day from the treatment in accordance with the standard shown in Table 21.

[4] = tested on: Setaria viridis (L.) Beauv.; assay: Herbicidal effect by upland field soil treatment; format: in vivo; parameters: scale not given here; conditions: active ingredient 1000 g/ha, examined at 21st day from treatment
Text: as §2

[5] = tested on: Echinochloa crus-galli (L.) Beauv. var. crus-galli; assay: Herbicidal effect by upland foliage treatment; format: in vivo; parameters: scale not given here; conditions: active ingredient 1000 g/ha, examined at 14th day from treatment
Outline: (§3)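 Two-week-old greenhouse plants in sand were sprayed over the whole foliage with water-diluted wettable powder at 1,000 liters per hectare, giving 1,000 g active ingredient per hectare. Herbicidal effect scored on a rating standard at day 14 after treatment.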

[6] = tested on: Setaria viridis (L.) Beauv.; assay: Herbicidal effect by upland foliage treatment; format: in vivo; parameters: scale not given here; conditions: active ingredient 1000 g/ha, examined at 14th day from treatment
Outline: as §3

| melting point | SMILES | Herbicidal effect index, Echinochloa oryzicola Vasing [1] | Herbicidal effect index, Monochoria vaginalis (Burm. F.) Presl var. plantaginea (Roxb.) Solms-Laub. [2] | herbicidal effect (index per standard of Table 21), Echinochloa curs-galli (L.) Beauv. Var. crus-galli [3] | herbicidal effect (index per standard of Table 21), Setaria viridis (L.) Beauv. [4] | herbicidal effect (index per standard of Table 21), Echinochloa curs-galli (L.) Beauv. Var. crus-galli [5] | herbicidal effect (index per standard of Table 21), Setaria viridis (L.) Beauv. [6] |
| --- | --- | --- | --- | --- | --- | --- | --- |
| 158 to 160 °C | CCS(=O)(=O)c1c(CS(=O)(=O)C2=NOC(C)(C)C2)c(C(F)(F)F)nn1-c1ccccc1 [3-0004, 5,5-dimethyl-3-(5-ethylsulfonyl-1-phenyl-3-trifluoromethyl-1H-pyrazol-4-ylmethylsulfonyl)-2-isoxazoline] | 5 | 5 | 5 | 5 | – | – |
| 151 to 152 °C | CC1(C)CC(S(=O)(=O)Cc2c(C(F)(F)F)nn3c2OCCC3)=NO1 [3-0019, 3-(5,5-dimethyl-2-isoxazolin-3-ylsulfonylmethyl)-2-trifluoromethyl-6,7-dihydro-5H-pyrazolo[5,1-b][1,3]oxazine] | – | – | 5 | 5 | – | – |
| 124 to 125 °C | CCOc1nn(C)c(C(F)(F)F)c1CS(=O)(=O)C1=NOC(C)(C)C1 [3-0012, 5,5-dimethyl-3-(3-ethoxy-1-methyl-5-trifluoromethyl-1H-pyrazol-4-ylmethylsulfonyl)-2-isoxazoline] | – | – | 5 | 5 | – | – |
| 89 to 90 °C | CC1(C)CC(SCc2c(Cl)nn(C(F)F)c2C(F)(F)F)=NO1 [3-0009, 3-(3-chloro-1-difluoromethyl-5-trifluoromethyl-1H-pyrazol-4-ylmethylthio)-5,5-dimethyl-2-isoxazoline] | 5 | 5 | 5 | 5 | – | – |
| 89 to 90 °C | CC1(C)CC(SCc2c(C(F)(F)F)nn(-c3ccccc3)c2Cl)=NO1 [3-0001, 3-(5-chloro-1-phenyl-3-trifluoromethyl-1H-pyrazol-4-ylmethylthio)-5,5-dimethyl-2-isoxazoline] | – | – | – | – | – | – |
| 77 to 80 °C | CC1(C)CC(S(=O)(=O)Cc2cnccc2C(F)(F)F)=NO1 [7-0001, 5,5-dimethyl-3-(4-trifluoromethyl-pyridin-3-ylmethylsulfonyl)-2-isoxazoline] | – | – | – | – | – | – |
| 150 to 151 °C | CN(C)c1c(CS(=O)(=O)C2=NOC(C)(C)C2)c(C(F)(F)F)nn1-c1ccccc1 [3-0005, 5,5-dimethyl-3-(5-dimethylamino-1-phenyl-3-trifluoromethyl-1H-pyrazol-4-ylmethylsulfonyl)-2-isoxazoline] | – | – | – | – | – | – |
| 78 to 79 °C | Cn1nc(C(F)F)c(CS(=O)(=O)C2=NOC(C)(C)C2)c1Cl [3-0018, 3-(5-chloro-3-difluoromethyl-1-methyl-1H-pyrazol-4-ylmethylsulfonyl)-5,5-dimethyl-2-isoxazoline] | – | – | 5 | 5 | – | – |
| 132 to 133 °C | CC1(C)CC(S(=O)(=O)Cc2c(C(F)(F)F)nn(-c3ccccc3)c2Cl)=NO1 [3-0002, 3-(5-chloro-1-phenyl-3-trifluoromethyl-1H-pyrazol-4-ylmethylsulfonyl)-5,5-dimethyl-2-isoxazoline] | 5 | 5 | 5 | 5 | – | – |
| 120 to 122 °C | CC1(C)CC(SCc2c(C(F)(F)F)n[nH]c2Cl)=NO1 [3-0007, 3-(5-chloro-3-trifluoromethyl-1H-pyrazol-4-ylmethylthio)-5,5-dimethyl-2-isoxazoline] | – | – | – | – | – | – |
| 67 to 70 °C | Cn1nc(C(F)(F)F)c(CS(=O)(=O)C2=NOC(C)(C)C2)c1Oc1ccccc1Cl [3-0014, 3-(5-(2-chlorophenoxy)-1-methyl-3-trifluoromethyl-1H-pyrazol-4-ylmethylsulfonyl)-5,5-dimethyl-2-isoxazoline] | 5 | 5 | – | – | – | – |
| 79 to 81 °C | CC1(C)CC(SCc2c(C(F)(F)F)nn(C(C)(C)C)c2Cl)=NO1 [3-0006, 3-(1-tert-butyl-5-chloro-3-trifluoromethyl-1H-pyrazol-4-ylmethylthio)-5,5-dimethyl-2-isoxazoline] | – | – | 4 | 4 | – | – |
| – | CCC(C)n1nc(Cl)c(CS(=O)(=O)C2=NOC(C)(C)C2)c1C(F)(F)F (stereo not shown) [3-0082] | 5 | 5 | 5 | 5 | 4 | 4 |
| – | CCCCn1nc(C(F)(F)F)c(CS(=O)(=O)C2=NOC(C)(C)C2)c1Cl [3-0085] | 5 | 5 | 5 | 5 | 4 | 4 |
| 105 to 107 °C | CCn1nc(Cl)c(CS(=O)(=O)C2=NOC(C)(C)C2)c1Cl [3-0017, 3-(3,5-dichloro-1-ethyl-1H-pyrazol-4-ylmethylsulfonyl)-5,5-dimethyl-2-isoxazoline] | – | – | 5 | 5 | – | – |
| – | CCC(C)n1nc(C(F)(F)F)c(CS(=O)(=O)C2=NOC(C)(C)C2)c1Cl (stereo not shown) [3-0081] | 5 | 5 | 5 | 5 | 4 | 4 |
| – | CC1(C)CC(S(=O)(=O)Cc2ccsc2)=NO1 [2-0003] | 5 | 5 | 5 | 5 | 5 | 4 |
| – | COCn1nc(Cl)c(CS(=O)(=O)C2=NOC(C)(C)C2)c1C(F)(F)F [3-0119] | 5 | 5 | 5 | 5 | 5 | 4 |
| – | CCOc1c(CS(=O)(=O)C2=NOC(C)(C)C2)c(C(F)(F)F)nn1C [3-0044] | 5 | 5 | 5 | 5 | 5 | 4 |
| – | CC(C)Cn1nc(C(F)(F)F)c(CS(=O)(=O)C2=NOC(C)(C)C2)c1Cl [3-0083] | 5 | 5 | 5 | 5 | 4 | 4 |
| – | CCc1nn(C)c(CS(=O)(=O)C2=NOC(C)(C)C2)c1Cl [5-0002] | 5 | 5 | 5 | 5 | 5 | 5 |
| – | CC1(C)CC(S(=O)(=O)Cc2ccccn2)=NO1 [9-0001] | 5 | 5 | 5 | 5 | 4 | 4 |
